The values below come from publication PMC10901892 (Scientific Reports, 2024).

The term EC50 denotes the concentration giving half of the maximal effect.

Series [1] relates to isolated mouse liver mitochondria. The class given is biochemical. Particulars: for EC50: read-out: EC50 of uncoupling activity.
Series [2] is described as follows: In vitro metabolic stability with rat liver microsomes. A general note: Microsomes from liver hold many membrane-bound enzymes, among them those of drug oxidation.
Series [3] in a line: NMY1009 plasma and tissue concentrations over time by LC/MS. The class given is in vivo. The settings on record: mice, 5 mg/kg i.p. How it is done: (§1) Figure 2 Determination of NMY1009 toxicity and plasma and tissue concentrations. (A) 7 treatment groups and 1 vehicle group (four mice per each group) were subjected to 7 daily administrations of the drug i.p. and well-being checks were carried out at 6 and 24 h after each treatment. No deaths or adverse reactions at any of the used NMY1009 doses were observed. (B, C) Tissue and plasma kinetics of NMY1009. Mice were injected with 5 mg/kg NMY1009 i.p. NMY1009 concentrations were measured by LC/MS.
To characterize the in vivo pharmacokinetics properties of NMY1009, we measured plasma and tissue concentrations over time after an i.p. injection of 5 mg/kg NMY1009. […] The kinetics of the tissue drug concentrations were similar compared to plasma. The observed decline in the adipose tissue concentrations may be due to drug metabolism or renal excretion. The latter possibility appears less likely as the drug concentration in the kidney was very low. […] However, the adipose tissue drug concentrations decreased over time with a half-life of approximately 3 h.
50 mg of tissue were extracted into 1000 μl of acetonitrile. The entire supernatant was dried and reconstituted into 200 μl of 1:1 acetonitrile/water.

Series [4] can be described thus: Stability in aqueous 100 mM KPO4 buffer with or without GSH.
A further series deals with mice. Put plainly: NMY1009 in vivo toxicity study. Particulars: i.p. daily, 1 to 100 mg/kg, seven days. How it is done:
as §1
7 treatment groups and 1 vehicle group (four mice per each group) were subjected to 7 daily administrations of the drug i.p. NMY1009 was dissolved in 100% DMSO and the injection volume was 30 μl. Well-being checks were carried out at 6 and 24 h after each treatment. The in vivo toxicity study was carried out by Altogen Labs (Austin, TX).

The test system of a further series is mice on high fat diet. Particulars: mouse, in vivo, ip, 3 mg/kg.
Another series relates to rats. The settings on record: cited from earlier work.
Series [5] concerns the target T1, mitochondrial electron transport chain (complex II) (Mus musculus, UniProt Q8K2B3+Q9CQA3+Q9CXV1+Q9CZB0).
T1 construct: Mouse liver mitochondria were isolated by homogenization and differential centrifugation; from tissue; host or cells: liver of male C57BL/6JINV (Jax) mice; isolated mitochondria, intact or disrupted by a freeze-thaw cycle
In kind it is biochemical.

For series [6] the following is noted: in vivo, 5 mg/kg.
The mark [7] stands for this setting: aqueous buffer, ESI mass spectrometry.
Where [8] appears, read: aqueous solution without GSH, 37 °C.

Entries after “also recorded” stand apart in the source; their conditions may differ. Some results are limits rather than exact numbers.

T1 sequence (Q8K2B3 43-664): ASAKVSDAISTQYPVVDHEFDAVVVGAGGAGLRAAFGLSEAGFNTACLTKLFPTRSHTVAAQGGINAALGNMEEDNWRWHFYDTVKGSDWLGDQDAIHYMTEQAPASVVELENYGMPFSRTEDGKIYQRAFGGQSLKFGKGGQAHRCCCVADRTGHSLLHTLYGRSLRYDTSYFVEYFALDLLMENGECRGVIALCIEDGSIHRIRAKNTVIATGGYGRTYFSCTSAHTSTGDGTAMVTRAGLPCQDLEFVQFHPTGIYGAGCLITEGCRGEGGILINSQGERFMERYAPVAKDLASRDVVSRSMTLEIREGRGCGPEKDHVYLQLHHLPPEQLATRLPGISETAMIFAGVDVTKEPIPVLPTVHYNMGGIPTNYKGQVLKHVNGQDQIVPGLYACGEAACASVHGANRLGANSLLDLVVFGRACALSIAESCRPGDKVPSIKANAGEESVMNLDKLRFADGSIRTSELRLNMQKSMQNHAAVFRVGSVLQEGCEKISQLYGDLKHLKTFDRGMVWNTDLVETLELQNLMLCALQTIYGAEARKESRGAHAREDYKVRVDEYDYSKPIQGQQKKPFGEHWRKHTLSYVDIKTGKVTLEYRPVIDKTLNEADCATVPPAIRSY
T1 sequence (Q9CQA3 31-282): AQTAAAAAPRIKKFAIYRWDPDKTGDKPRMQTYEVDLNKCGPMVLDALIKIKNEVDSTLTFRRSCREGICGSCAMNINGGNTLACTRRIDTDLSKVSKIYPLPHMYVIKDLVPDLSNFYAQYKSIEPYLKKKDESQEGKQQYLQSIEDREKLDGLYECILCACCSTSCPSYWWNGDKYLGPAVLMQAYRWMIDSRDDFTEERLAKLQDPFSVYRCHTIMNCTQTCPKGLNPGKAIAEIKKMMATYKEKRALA
T1 sequence (Q9CZB0 30-169): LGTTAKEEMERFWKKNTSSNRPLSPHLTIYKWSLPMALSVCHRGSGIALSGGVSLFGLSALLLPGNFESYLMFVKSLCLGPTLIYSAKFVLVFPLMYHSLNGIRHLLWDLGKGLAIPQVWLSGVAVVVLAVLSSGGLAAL
T1 sequence (Q9CXV1 57-159): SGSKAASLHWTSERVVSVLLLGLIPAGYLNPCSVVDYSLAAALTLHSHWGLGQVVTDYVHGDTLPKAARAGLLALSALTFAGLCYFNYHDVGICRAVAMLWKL

In the case of `COc1ccc(NN=C(C#N)C#N)cc1` [C1-CCP], the “uncoupling activity (in words)” value in [1] was “lower uncoupling activity compared to C4-CCP and C8-CCP”.

For the compound `CCCCCCCCOc1ccc(NN=C(C#N)C#N)cc1` [NMY1009, (4-octyloxy-phenyl)carbonhydrazonoyl dicyanide], the EC50 in series [1] was ~100 nM. Further, in series [2] (rat, microsomes, pH 7.4), the half-life at 1 µM was ~30 min. In addition, in series [3], the “tissue distribution (in words)” value is recorded as “highest drug tissue concentrations were found in the different types of adipose tissue”. The half-life in series [3] (mouse, adipose tissue, ip, read-out: half-life of adipose tissue drug concentrations (converted)) is ~180 min. Also, the Tmax in [3] (mouse, plasma, ip, read-out: time of peak plasma concentration (converted)) is 30 min. Besides, the “incubation time at which the dealkylated metabolite (loss of the octyl group) was observed” value in series [4] (setting [7]) came out at 30 min. In series [4] (setting [8]), the “time after which one third of the drug was turned over” value is on record as “approximately 1 h” and the “time after which two thirds of the drug were turned over” value was 6 h. The “drug remaining at the end of the 24 h incubation” value in series [4] (aqueous solution without GSH, 37 °C, 10 μM) is recorded as “about 18%”. Moreover, the “deaths or adverse reactions (toxicity)” value in the series with mice is recorded as “No deaths or adverse reactions were observed; also recorded: no toxicity”. In the series on mice on high fat diet, the “Glucose Tolerance Test response vs vehicle” value was “no altered Glucose Tolerance Test response”; the “blood glucose concentrations and other blood markers of metabolic health vs vehicle” value was “no significant differences in blood glucose concentrations and other blood markers of metabolic health”; the “body composition (body weight and fat mass gains) vs vehicle” value was “no changes in the body composition”; the “respiratory exchange ratio and energy expenditure vs vehicle” value is “no differences the respiratory exchange ratio and energy expenditure”. Besides, the “serum adiponectin concentrations vs vehicle” value with mice on high fat diet is “decrease in serum adiponectin concentrations”.

Consider `N#CC(C#N)=NNc1ccc(OC(F)(F)F)cc1` [FCCP, carbonyl cyanide p-trifluoromethoxy-phenylhydrazone, reference compound], for which, in series [2] (presence and absence of NADPH, up to 45 min, 37 °C), the “stability upon incubation with rat liver microsomes (in words)” value is given as “stable”. In series [4] (24 h, 37 °C, 100 mM KPO4), the “drug turnover in aqueous solution in the absence or presence of 0.2 mM GSH (in words)” value is given as “not metabolized significantly”. In addition, the “incubation time at which the O-dealkylated metabolite (loss of the trifluoromethyl group) was observed” value in series [4] (setting [7]) was found to be 24 h. Besides, in the series with rats, the “doses causing adverse effects” value is ≥ 5 mg/kg and the doses causing death entry is given as “higher than 20 mg/kg”.

On to `CCCCOc1ccc(NN=C(C#N)C#N)cc1` [C4-CCP], for which the EC50 in series [1] was ~100 nM.

As for `CCCCCCCCCCCCOc1ccc(NN=C(C#N)C#N)cc1` [C12-CCP], the “uncoupling activity (in words)” value in series [1] is “no activity; also recorded: low uncoupling activity”.

Consider `O=[N+]([O-])c1ccc(O)c([N+](=O)[O-])c1` [2,4-dinitrophenol, reference compound], for which, in series [1], the “EC50, fold stimulation of oxygen consumption” value amounted to 9600 nM. For the same compound, the “inhibitory effect on mitochondrial electron transport chain activity” value in series [5] is given as “no inhibitory effect”.

`CCCCCCCCOc1cc([N+](=O)[O-])c(O)c([N+](=O)[O-])c1` [2,6-dinitro-4-(octyloxy)phenol]: the “EC50, fold stimulation of oxygen consumption” value in series [1] was found to be 3700 nM. For the same compound, in [6] (C57BL/6, mouse), the “plasma concentration kinetics (in words)” value is “decreased rapidly with much faster kinetics compared to 2,6-dinitrophenol”. Moreover, in series [6] (mouse), the “drug tissue concentration, heart” value is “BLQ”; the “drug tissue concentration, kidney” value is on record as “BLQ”; the “drug tissue concentration, liver” value is given as “BLQ”; the “health of animals during the study” value is listed as “healthy throughout the study duration”. Besides, the “tissue concentrations (in words)” value in series [6] (mouse, ip) is listed as “very low”. For the same compound, in series [5], the “effect on mitochondrial oxygen consumption at very high concentrations” value is reported as “inhibited mitochondrial oxygen consumption at very high concentrations”, the “effect on oxygen consumption with NADH as substrate” value is recorded as “minimal effect” and the “effect on succinate-dependent oxygen consumption after disruption of the inner membrane” value is recorded as “inhibited succinate-dependent oxygen consumption”.
